Test results as given in ChEMBL document CHEMBL1201862, “PubChem BioAssay data set” (2004).
The source made the active and inactive calls.

Legend:
[1] = target: Luciferin 4-monooxygenase (Photinus pyralis, UniProt P08659); experiment: inhibition of purified Photinus pyralis luciferase – biochemical, luminescence, dose response (AID 1891)
[2] = Luminescence Cell-Based Dose Confirmation HTS to Identify Inhibitors of Platelet Dense Granule Release. [Related pubchem assays: 1663 (Primary HTS), 1678 (Summary of Project)]; format: functional
[3] = target: T1, Polyadenylate-binding protein 1 (Homo sapiens, UniProt P11940); experiment: MLLE binding blockers, Cy5 peptide tracer – biochemical, fluorescence polarization, Cy5-PAM2 peptide, secondary, miRNA deadenylation inhibitor project, dose response (AID 602260); format: functional; conditions: read-out: IC50_Mean
T1 sequence (P11940 whole entry, the tested form may be a part): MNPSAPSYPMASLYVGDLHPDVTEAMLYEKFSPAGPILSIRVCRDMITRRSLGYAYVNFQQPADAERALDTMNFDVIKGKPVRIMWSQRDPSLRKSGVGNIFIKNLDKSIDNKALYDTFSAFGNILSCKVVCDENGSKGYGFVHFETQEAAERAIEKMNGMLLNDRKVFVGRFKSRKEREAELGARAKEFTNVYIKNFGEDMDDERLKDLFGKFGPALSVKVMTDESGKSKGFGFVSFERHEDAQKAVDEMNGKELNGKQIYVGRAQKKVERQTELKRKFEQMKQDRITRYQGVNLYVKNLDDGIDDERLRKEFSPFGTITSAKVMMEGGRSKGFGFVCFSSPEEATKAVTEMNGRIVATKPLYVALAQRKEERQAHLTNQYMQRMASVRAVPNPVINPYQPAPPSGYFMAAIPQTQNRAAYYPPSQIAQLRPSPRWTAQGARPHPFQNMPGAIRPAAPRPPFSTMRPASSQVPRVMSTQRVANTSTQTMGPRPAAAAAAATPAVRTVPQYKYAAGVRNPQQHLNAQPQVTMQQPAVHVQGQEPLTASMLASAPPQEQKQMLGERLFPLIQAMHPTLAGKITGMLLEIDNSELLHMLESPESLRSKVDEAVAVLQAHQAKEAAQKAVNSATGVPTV

[4] = target: T1, Polyadenylate-binding protein 1; experiment: MLLE domain peptide-binding blockers, IC50 – biochemical, fluorescence polarization, FITC-PAM2 peptide, dose response (AID 602259); format: functional; conditions: read-out: IC50_Mean
[5] = target: T2, Ubiquitin-conjugating enzyme E2 N (Homo sapiens, UniProt P61088); format: functional;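 note: Dose-response confirmation in a TR-FRET assay detecting UBC13-driven polyubiquitin chain formation, inhibition measured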
T2 sequence (P61088 whole entry): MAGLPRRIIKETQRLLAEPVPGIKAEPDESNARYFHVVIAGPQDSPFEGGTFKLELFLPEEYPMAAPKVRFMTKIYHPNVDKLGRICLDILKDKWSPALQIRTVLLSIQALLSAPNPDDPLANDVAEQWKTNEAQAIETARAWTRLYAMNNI

[6] = target: Nonstructural protein 1 (Influenza A virus, UniProt Q194T2); format: functional, Influenza A virus (A/California/07/2009(H1N1))
Sequence of Nonstructural protein 1 (Q194T2 whole entry): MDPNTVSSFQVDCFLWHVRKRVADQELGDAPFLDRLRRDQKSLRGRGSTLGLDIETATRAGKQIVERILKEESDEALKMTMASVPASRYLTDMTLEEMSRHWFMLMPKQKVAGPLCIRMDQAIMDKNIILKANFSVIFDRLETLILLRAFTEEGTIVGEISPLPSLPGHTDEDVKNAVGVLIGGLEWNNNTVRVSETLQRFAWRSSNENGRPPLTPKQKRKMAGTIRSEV

[7] = reduction of Shn3 3'UTR-driven luciferase in osteoblasts – cell-based, Clone20 osteoblasts, firefly luciferase, cherry-picked, dose response (AID 624132); format: functional;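 note: firefly luciferase luminescence from reporter carrying the Shn3 3'UTR in osteoblasts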
[8] = loss of viability in HepG2 cells – cell-based, CellTiter-Glo, cherry-picked, cytotoxicity control for Shn3 inhibitor project, dose response (AID 624134); format: functional
[9] = non-specific 3'UTR reporter inhibition in Clone20-Shn3RL – cell-based, Renilla luciferase, cherry-picked, counter-screen for Shn3 inhibitor project, dose response (AID 624133); format: functional
[10] = system: INS1; experiment: INS-1E survival protection against cytokine death – cell-based, luminescence, retest, dose response (AID 449756); format: functional; conditions: Rattus norvegicus;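 note: cell death triggered by IL-1 beta plus TNF-alpha plus IFN-gamma mixture; protective hits raise ATP signal compared with cytokine alone wells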
[11] = blockers of HIV-1 envelope-mediated cell-cell fusion – cherry-pick, dose response (AID 652057); format: functional, cell-based
[12] = viability of PTEN-deleted HCT116 cells – cell-based, HCT116 PTEN knockout, dose response (AID 1047); format: functional;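 note: HCT116 colon tumor cells with PTEN knocked out; cells exposed to compound for 60 hours before readout; potency for loss of cell viability measured by luminescence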
[13] = viability of HCT116 lacking mutant beta-catenin – cell-based, human colon tumor, dose response (AID 1045); format: functional;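 note: HCT116 colon tumor cells with beta catenin knocked out; cells exposed to compound for 60 hours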
[14] = viability of uninfected HEp-2 cells – cell-based, HTS, cytotoxicity control for RSV inhibitor project, dose response (AID 2410); format: functional; conditions: human respiratory syncytial virus
[15] = Luminescence Cell-Based Dose Retest to Confirm Inhibitors of Cancer Stem Cells. [Related pubchem assays (depositor defined):AID2717, AID2721]; format: functional; conditions: Homo sapiens
[16] = Trypanosoma cruzi growth suppression in host cells – NIH3T3 host cells, beta-gal luminescence, confirmation (AID 2044); format: functional, cell-based;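 note: intracellular parasites grown in NIH/3T3 mouse fibroblasts as host cells; luminescent beta-galactosidase reporter signal from transgenic T. cruzi replicating inside host cells; inhibitors lower the luminescence signal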
[17] = NIH3T3 cell viability loss – ATP luminescence, mouse fibroblasts, counter-screen, dose response (AID 2010); format: functional, cell-based;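 note: cells exposed to compound for about 90 hours before reading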
[18] = target: T3, Heat shock factor protein 1 (Mus musculus, UniProt P38532); experiment: enhancement of HSF1-driven luciferase signal – cell-based, NIH3T3, luminescence, dose retest, confirmation (AID 435004); format: functional;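 note: stress induced by proteasome inhibitor MG132 added 30 min after compound; luciferase reporter driven by HSF1 response element in NIH3T3 cells; actives raise luminescence as potentiators of the MG132 stress response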
T3 sequence (P38532 whole entry): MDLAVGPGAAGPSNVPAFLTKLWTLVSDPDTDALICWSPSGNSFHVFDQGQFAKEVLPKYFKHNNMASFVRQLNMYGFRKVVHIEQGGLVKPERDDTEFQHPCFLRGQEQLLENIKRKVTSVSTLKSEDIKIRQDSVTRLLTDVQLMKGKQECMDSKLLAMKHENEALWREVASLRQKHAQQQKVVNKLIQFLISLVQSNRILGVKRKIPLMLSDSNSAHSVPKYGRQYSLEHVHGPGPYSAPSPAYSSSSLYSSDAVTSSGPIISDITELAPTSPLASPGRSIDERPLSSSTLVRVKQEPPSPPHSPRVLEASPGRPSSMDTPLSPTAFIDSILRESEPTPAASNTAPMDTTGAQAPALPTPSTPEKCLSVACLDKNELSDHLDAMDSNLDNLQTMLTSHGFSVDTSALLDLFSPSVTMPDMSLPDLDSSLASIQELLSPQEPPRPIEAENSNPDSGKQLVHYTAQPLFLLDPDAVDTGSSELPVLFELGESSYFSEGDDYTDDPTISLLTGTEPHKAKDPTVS

Sequence of Luciferin 4-monooxygenase (P08659 whole entry): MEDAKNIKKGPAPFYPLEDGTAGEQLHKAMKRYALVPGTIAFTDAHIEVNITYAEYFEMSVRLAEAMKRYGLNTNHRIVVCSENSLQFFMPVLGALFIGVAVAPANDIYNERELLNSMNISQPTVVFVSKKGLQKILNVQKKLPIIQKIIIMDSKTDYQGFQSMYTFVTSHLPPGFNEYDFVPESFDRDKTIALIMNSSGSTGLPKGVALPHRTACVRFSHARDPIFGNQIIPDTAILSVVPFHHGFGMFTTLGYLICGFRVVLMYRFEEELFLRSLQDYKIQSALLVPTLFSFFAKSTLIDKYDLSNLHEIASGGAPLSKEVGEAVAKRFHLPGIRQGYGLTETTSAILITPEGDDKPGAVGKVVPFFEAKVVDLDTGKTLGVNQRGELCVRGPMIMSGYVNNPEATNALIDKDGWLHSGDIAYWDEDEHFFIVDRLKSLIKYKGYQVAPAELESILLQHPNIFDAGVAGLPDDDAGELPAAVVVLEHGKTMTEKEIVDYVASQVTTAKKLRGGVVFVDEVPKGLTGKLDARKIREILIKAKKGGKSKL

O=C(NCCSc1c[nH]c2ccccc12)c1c(F)cccc1F
EC50 [1]: > 112 µM (not active)
EC50 [2]: > 112 µM (not active)

CCOC(=O)c1ccc(N2C(=O)CC(Sc3ncccn3)C2=O)cc1 (centres undefined)
IC50 [3]: > 66 µM (inactive)
IC50 [4]: > 66 µM (inactive)

CCC(C)(C)NC(=O)CN(C(=O)c1snc(C(N)=O)c1N)c1ccc2nc(C)sc2c1
IC50 [5]: > 20 µM (inactive)

CCN(CC)CCNC(=O)c1ccc(NC(=O)/C=C/c2ccc3ccccc3n2)cc1
IC50 [6]: > 100 µM (active)

COc1ccc(C(=O)CN2CCN(S(=O)(=O)c3cccc([N+](=O)[O-])c3)CC2)cc1OC
IC50 [3]: > 66 µM (inactive)
IC50 [4]: > 66 µM (inactive)

Cn1c(SCc2cccc(Br)c2)nc2ccccc2c1=O
AC50 [7]: 7.68 µM (active)
AC50 [8]: 59.8 µM (active)
AC50 [9]: 3.47 µM (active)

CCn1c(Cc2cccn2C)nnc1SCC(=O)c1ccc(C)cc1
EC50 [1]: > 112 µM (not active)
EC50 [2]: > 112 µM (not active)

Cc1ccc(C(=O)Nc2nc(-c3ccccn3)cs2)cc1S(=O)(=O)N1CCOCC1
IC50 [6]: 7.81 µM (active)
AC50 [10]: 1.36 µM (active)
AC50 [7]: 0.838 µM (active)
AC50 [8]: > 70 µM (inactive)
AC50 [9]: 0.976 µM (active)

COc1cc(NC(S)=Nc2ccc(OC(F)F)cc2)cc(OC)c1
IC50 [3]: > 66 µM (inactive)
IC50 [4]: > 66 µM (inactive)

Cc1c(N2C(=O)S/C(=C3\C(=O)Nc4ccccc43)C2=O)c(=O)n(-c2ccccc2)n1C
IC50 [3]: > 66 µM (inactive)
IC50 [4]: > 66 µM (inactive)

Cc1ccc(S(=O)(=O)N2[C@H](c3cccc(Cl)c3)CC(=O)[C@@H]3CN(S(=O)(=O)c4ccccc4C)[C@H](c4ccc(Cl)cc4)C[C@@H]32)cc1
AC50 [7]: 0.289 µM (active)
AC50 [8]: 5.61 µM (active)
AC50 [9]: 0.62 µM (active)

Cc1c(NC(=S)N/N=C\c2ccccc2O)c(=O)n(-c2ccccc2)n1C
IC50 [6]: 6.13 µM (active)

Cc1ccccc1-c1nc(CS(=O)(=O)CC(=O)N2CCc3ccccc32)c(C)o1
EC50 [1]: > 112 µM (not active)
EC50 [2]: > 112 µM (not active)

C[C@H]1CN([C@@H](C)CO)C(=O)Cc2cc(N(C)C)ccc2O[C@H]1CN(C)Cc1ccc(Cl)c(Cl)c1
AC50 [11]: 40.2 µM (active)

O=C(CNCCC1=CCCCC1)Nc1ccc(N2CCCCCC2)cc1
EC50 [12]: 15.3 µM (active)
EC50 [13]: 12.3 µM (active)
IC50 [6]: 13.8 µM (active)

CCC(=O)NCCc1nc2ccccc2n1Cc1ccc(C)cc1
EC50 [1]: > 112 µM (not active)
EC50 [2]: > 112 µM (not active)

CCCCCCCCC(=O)N1CCN(c2cc3c(cc2F)c(=O)c(C(=O)O)cn3CC)CC1
IC50 [5]: > 20 µM (inactive)

Cc1ccc(O)c(CNCCNCc2cc(C)ccc2O)c1
IC50 [5]: > 20 µM (inactive)

CC=CCn1c(SCc2ccccc2)nc2c1c(=O)[nH]c(=O)n2C
IC50 [3]: > 66 µM (inactive)
IC50 [4]: > 66 µM (inactive)

Oc1ccccc1N1CCN(c2ncnc3sc(-c4ccccc4)cc23)CC1
CC50 [14]: 14.2 µM (active)
EC50 [1]: > 112 µM (not active)
EC50 [2]: > 112 µM (not active)
AC50 [15]: 3.87 µM (active)

N#Cc1c(O)nc(S)nc1-c1cccc(Cl)c1
IC50 [3]: > 66 µM (inactive)
IC50 [4]: > 66 µM (inactive)

COc1ccc(CCNCc2cc(C)n(-c3ccc(OC)cc3)c2C)cc1
EC50 [16]: 1.85 µM (active)
EC50 [17]: > 60 µM (not active)
IC50 [6]: 44.7 µM (active)
EC50 [18]: > 260 µM (inactive)

CCSc1nc(N2CCCCC2)c2c(c1C#N)CCCC2
IC50 [5]: > 20 µM (inactive)
